From the supplement of paper PMC11003180

Tests used:
Assay in all cases: drug sensitivity score (DSS) from 5-dose viability curve (DSS (area-based score, 0 = no response)); higher = more sensitive (stronger viability inhibition); extreme values may be limits of the assay
[1] = test system: MDCK p60AmotL2-inducible + doxycycline (p60AmotL2 expressing); conditions: doxycycline: 10 ng/mL; 72 h
Outline: (§1)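 After 72 h at 37 °C on 384-well plates pre-spotted with 528 oncology drugs at five doses (1-10,000 nM), parental and doxycycline-inducible MDCK cells were assessed; both lines had been given 10 ng/mL doxycycline in the medium before seeding at 2000 cells/well. Viability was taken from CellTiter-Glo luminescence scaled per plate to vehicle and positive controls, and drug sensitivity scores were derived from dose-response fits in the Breeze pipeline.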

[2] = test system: MDCK wild-type + doxycycline; conditions: doxycycline: 10 ng/mL; 72 h
Outline: as §1

[3] = test system: MDCK wild-type - doxycycline; conditions: doxycycline: none; 72 h
Outline: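 Drug sensitivity scores came from Breeze pipeline dose-response fits of CellTiter-Glo luminescence, scaled per plate between vehicle and positive controls. The assay used parental MDCK cells without doxycycline at 2000 cells/well, exposed for 72 h to 528 oncology drugs at five doses (1-10,000 nM).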

Structure (SMILES) | drug sensitivity score [1] | drug sensitivity score [2] | drug sensitivity score [3]
COc1cc(N2CCN(C)CC2)ccc1Nc1nccc(-c2cn(C)c3cnccc23)n1 [AZ191] | 2.2 | 2.5 | 0
Cc1sc2c(c1C)C(c1ccc(Cl)cc1)=N[C@@H](CC(=O)NCCCCNC(=O)COc1cccc3c1C(=O)N(C1CCC(=O)NC1=O)C3=O)c1nnc(C)n1-2 (stereo not given in full) [dBET1] | 9.3 | 8 | 9.5
Nc1cc(F)ccc1NC(=O)/C=C/c1cnn(C/C=C/c2ccccc2)c1 [RGFP966] | 1 | 0 | 0
O=C(CCCCCCC(=O)Nc1ccccc1)NO [Vorinostat] | 11.8 | 9.8 | 7.5
CCCOc1ccn2c(C(C)=O)cc(-c3ccccc3S(C)(=O)=O)c2c1 [GSK2801] | 0 | 0 | 0
COc1cc2c(Oc3ccc(NC(=O)C4(C(=O)Nc5ccc(F)cc5)CC4)cc3F)ccnc2cc1OCCCN1CCOCC1 [Foretinib] | 2.8 | 1.2 | 0
CCCc1cc(C)[nH]c(=O)c1CNC(=O)c1cc(-c2ccnc(N3CCN(C)CC3)c2)cc2c1cnn2C(C)C [GSK343] | 0 | 0 | 0
CN1CC[C@@H](NC(=O)Nc2ccc(C#N)cc2)C[C@@H]1c1nc2ccccc2[nH]1 [Glasdegib] | 0 | 0 | 0
Cc1ccc(NC(=O)c2ccc(CN3CC[C@H](N(C)C)C3)c(C(F)(F)F)c2)cc1Nc1nccc(-c2cncnc2)n1 [Bafetinib] | 0 | 0 | 0
CS(=O)(=O)c1ccc(C(=O)Nc2ccc(Cl)c(-c3ccccn3)c2)c(Cl)c1 [Vismodegib] | 0 | 0 | 0
CS(=O)(=O)N1CCN(Cc2cc3nc(-c4cccc5[nH]ncc45)nc(N4CCOCC4)c3s2)CC1 [Pictilisib] | 14.4 | 8.4 | 6.9
C[C@@H]1COCCN1c1cc(C2([S@](C)(=N)=O)CC2)nc(-c2cc[nH]c3nccc2-3)n1 [AZD6738] | 6.7 | 3.4 | 1.3
O=C(Nc1cc(Cl)cc2c1[nH]c1cnccc12)c1cccnc1 [PS-1145] | 0 | 0 | 0
CC(C)Oc1ccc(C(=O)N[C@H](CNC(=O)CN(C)C)Cc2ccc(-c3cn4cccc([C@H](C)O)c4n3)cc2)cc1Cl | 15.8 | 12.8 | 10.7
CC(C)Nc1cc(-c2c[nH]c(C(=O)N[C@H](CO)c3cccc(Cl)c3)c2)c(Cl)cn1 [Ulixertinib] | 9.6 | 4.9 | 3.2
Cc1cc(-c2nc(-c3ccc(OC(F)(F)F)cc3)no2)nn1Cc1ccnc(N2CCN(C3CC3)CC2)c1 [BAY 87-2243] | 0 | 0 | 0
CC/C(=C(\c1ccc(O)cc1)c1ccc(OCCN(C)C)cc1)c1ccccc1 [4-hydroxytamoxifen] | 5.7 | 4.3 | 1.2
COc1cc(N2CCC(N3CCN(C)CC3)CC2)ccc1Nc1ncnc(Nc2ccccc2S(=O)(=O)C(C)C)n1 [ASP3026] | 9.5 | 6.5 | 6.3
CC(C)C[C@H](NC(=O)CNC(=O)c1cc(Cl)ccc1Cl)B(O)O [Ixazomib] | 9.7 | 9.4 | 9.6
Cc1cc(Nc2cc(N3CCN(C)CC3)nc(/C=C/c3ccccc3)n2)n[nH]1 [ENMD-2076] | 10.7 | 8.5 | 6.5
NS(=O)(=O)NCCNc1nonc1/C(=N/O)Nc1ccc(F)c(Br)c1 [Epacadostat] | 0 | 0 | 0
Nc1nc2[nH]cc(CCc3ccc(C(=O)N[C@@H](CCC(=O)O)C(=O)O)cc3)c2c(=O)[nH]1 [Pemetrexed] | 7.1 | 5.3 | 5.5
NC(=O)Nc1cc(-c2cccc(F)c2)sc1C(=O)N[C@H]1CCCNC1 [AZD7762] | 0.3 | 0.2 | 0

Structure (SMILES) | drug sensitivity score [1] | drug sensitivity score [2] | drug sensitivity score [3]
COc1cc2nccc(Oc3ccc(NC(=O)NC4CC4)c(Cl)c3)c2cc1C(N)=O [Lenvatinib] | 0 | 0 | 0
COc1cc([C@@H]2c3cc4c(cc3[C@@H](O[C@@H]3O[C@@H]5CO[C@@H](C)O[C@H]5[C@H](O)[C@H]3O)[C@H]3COC(=O)[C@H]23)OCO4)cc(OC)c1O [Etoposide] | 9.5 | 6.9 | 4.3
Cc1cccc(-c2nn3c(c2-c2ccnc4ccc(C(N)=O)cc24)CCC3)n1 [Galunisertib] | 0 | 0 | 0
N#Cc1ccc(COC[C@H]2O[C@@H](n3c(NCc4ccc(Cl)c(Cl)c4)nc4c(N)ncnc43)[C@H](O)[C@@H]2O)cc1 | 0 | 0 | 0
Cc1[nH]c2ccccc2c1CCNCc1ccc(/C=C/C(=O)NO)cc1 [Panobinostat] | 15 | 12.5 | 15.2
O=C(c1ccc(F)c(F)c1Nc1ccc(I)cc1F)N1CC(O)([C@@H]2CCCCN2)C1 [Cobimetinib] | 9.8 | 3.4 | 3.9
COC[C@H](NC(=O)c1cnc(C)s1)C(=O)N[C@@H](COC)C(=O)N[C@@H](Cc1ccccc1)C(=O)[C@@]1(C)CO1 [Oprozomib] | 17.4 | 17.6 | 17.9
CC[C@H](NC(=O)[C@H](C)NC)C(=O)N1C[C@@H](O)C[C@H]1Cc1c(-c2[nH]c3cc(F)ccc3c2C[C@@H]2C[C@H](O)CN2C(=O)[C@H](CC)NC(=O)[C@H](C)NC)[nH]c2cc(F)ccc12 [Birinapant] | 0 | 0 | 0
O=C(NC1CCNCC1)c1n[nH]cc1NC(=O)c1c(Cl)cccc1Cl [AT7519] | 9.1 | 8.9 | 8.2
CC(C)(O)CNc1nc(Nc2ccnc(C(F)(F)F)c2)nc(-c2cccc(C(F)(F)F)n2)n1 [Enasidenib] | 0 | 0 | 0
Cc1c(F)cc(C(=O)NC2CC2)cc1-c1ccc(C(=O)NCC(C)(C)C)cn1 [Losmapimod] | 0 | 0 | 0
COc1cc(NS(C)(=O)=O)ccc1Nc1c2ccccc2nc2ccccc12 [Amsacrine] | 15.3 | 8.8 | 7.6
O=C(CCCCCCNC(=O)c1cnc(N(c2ccccc2)c2ccccc2)nc1)NO [Rocilinostat] | 7.2 | 4.9 | 4.5
COc1c(OCCCN2CCOCC2)ccc2c1N=C(NC(=O)c1cnc(N)nc1)N1CCN=C21 [Copanlisib] | 10.9 | 6.2 | 5.8
CC(C)c1cc(-c2n[nH]c(=O)n2-c2ccc3c(ccn3C)c2)c(O)cc1O [Ganetespib] | 19.3 | 17.4 | 16.7
CC1(C)C(C(=O)Nc2ccc(S(=O)(=O)c3ccc(NC(=O)C4C(C)(C)C4(C)C)cc3)cc2)C1(C)C [BRD7116] | 0 | 0 | 0
COc1cccc(-c2ccc(NC(=O)C3=C(C(=O)O)CCC3)c(F)c2)c1 [Vidofludimus] | 1.2 | 0.6 | 0.4
Cc1nc(-c2cn3c(n2)-c2ccc(-c4cnn(C(C)(C)C(N)=O)c4)cc2OCC3)n(C(C)C)n1 [Taselisib] | 6.3 | 0.3 | 0
S=C(NCc1ccc2c(c1)OCO2)N1CCN(c2ncnc3c2oc2ccccc23)CC1 [Amuvatinib] | 6 | 3.1 | 2.3
COc1ccc2[nH]cc(/C=C3\C(=O)Nc4ccc(NC(=O)CCN5CCCCC5)cc43)c2c1 | 9.4 | 7.3 | 6
Cc1ncc(Cl)cc1NCc1ccc(C(=O)N[C@@H](CC2CCCC2)C(=O)NC2CC2)s1 | 0 | 0 | 0
CC(=O)N(O)CCCCCNC(=O)CCC(=O)N(O)CCCCCNC(=O)CCC(=O)N(O)CCCCCN [Deferoxamine] | 5.1 | 3.9 | 3.3
